From US4340602A, “Compositions inhibiting estrogen sulfotransferase activity” (Wayne State University, priority 1978, dated 1982)
Like-named read-outs stand apart in the source and are kept apart here.

Assays:
[1] = molecular target: T1, Bovine Adrenal Estrogen Sulfotransferase (Bos taurus, UniProt P19217); assay: Inhibition of bovine adrenal estrogen sulfotransferase (estrone sulfurylation); type: biochemical
T1 construct: The enzyme was isolated from the bovine adrenals; from tissue; host or cells: bovine adrenals; purified by ammonium sulfate fractionation and chromatography on DEAE-cellulose or DEAE-Sephadex A-50
T1 sequence (P19217 1-295): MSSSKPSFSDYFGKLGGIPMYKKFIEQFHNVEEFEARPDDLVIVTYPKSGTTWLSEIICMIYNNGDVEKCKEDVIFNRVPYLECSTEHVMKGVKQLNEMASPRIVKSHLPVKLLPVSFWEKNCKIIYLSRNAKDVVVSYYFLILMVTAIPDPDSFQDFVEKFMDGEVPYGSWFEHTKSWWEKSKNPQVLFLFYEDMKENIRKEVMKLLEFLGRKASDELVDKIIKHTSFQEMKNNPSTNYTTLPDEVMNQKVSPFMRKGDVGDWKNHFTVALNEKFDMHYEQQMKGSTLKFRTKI
Description: Materials are evaluated for activity as estrogen sulfotransferase inhibitors by the method of Rozhin et al, Journal of Biological Chemistry, 252:7214-7220 (October 25, 1977), herein incorporated by reference.
Isolation of Estrogen Sulfotransferase (EC 2.8.2.4). The enzyme was isolated from the bovine adrenals and purified by ammonium sulfate fractionation and column chromatography on DEAE-cellulose or DEAE-SephadexA-50 [Rozhin et al (1974)].
Standard Enzyme Assay. The incubation mixtures contained the following in a total volume of 0.2 ml: 0.4 mM P-Ado-PS; 2 to 23 μM estrone (3-hydroxy-1,3,5(10)-estratriene-17-one), 5×10^5 dpm of [6,7-^3 H]estrone; 5 mM magnesium acetate; 0.19 M Tris/HCl buffer (pH 8.1 at 37°); 5 ug of the enzyme; and 25 μM dithiothreitol. After a 10-min incubation (in the presence of a constant amount of inhibitor and a variable amount of estrone), the boiled mixtures were supplemented with 5 μg of aqueous estrone sulfate. The remaining [^3 H]estrone was extracted three times with 0.3 ml of ethyl ether. The residual ether was removed and the volume adjusted to 0.5 ml with methanol. A sample (25 μl) was applied, together with 10 μg of methanolic estrone sulfate marker, to type SG chromatography media (Gelman Instrument Co., Ann Arbor, Mich.), and developed with chloroform/acetone/acetic acid (110:35:6). After drying the sheet, samples were visualized by spraying with methylene blue (25 mg in 100 ml of 0.05 N H2 SO4), punched out with a cork borer, and counted in 10 ml of dioxane counting liquid. A blank employing a boiled enzyme sample was incubated and the recorded counts were substracted from each determination. The total corrected counts, representing steroid sulfate ester, were converted to nanomoles utilizing the specific activity of [^3 H]estrone. An enzyme unit was defined as that quantity of enzyme which synthesized 1 nmol of estrone sulfate in 1 min under chosen conditions. […] When nonsubstrate steroids were used as the inhibitors, the procedure for the enzyme assay was as described earlier [Rozhin et al (1974)], utilizing 5 μg of enzyme, P-Ado-[^35 S]PS, and unlabeled estrone.
Data Processing. The initial velocity analysis was carried out keeping the concentration of P-Ado-PS at saturation level, varying the estrone concentration and keeping the concentration of the inhibitor at a fixed level. Preliminary plots of the data were made in the double reciprocal form (l/v versus l/[S]), and in the form of replots of slopes (and intercepts) versus inhibitor concentration. On the basis of these plots, the proper inhibition pattern was chosen for each experiment and the data points were fitted to the appropriate equation.
Linear competitive inhibition: [formula]
Hyperbolic competitive inhibition: [formula]
Slope-parabolic non-competitive inhibition: [formula]
All calculations were performed using Cleland's Fortran programs (Adv. Enzymol., 29:1-32). The programs gave the values of Km, Vmax, and inhibition constants.
Fractional Inhibition. From kinetic experiments, Ki was calculated as described above under "Data Processing" after making replots of slopes (and/or intercepts) versus inhibitor concentration. […] Substituting v and vi from the corresponding rate equations in the absence of (v=(Vmax [S])/(Km +[S])) and presence of a (competitive) inhibition (Equation 1), the following relationship for FI is obtained: [formula] After substituting [S], Km, and [I] (see above), the equation for the fractional (competitive) inhibition simplifies to: [formula] and the mathematical relationship between FI and Ki of competitive inhibitors is represented by the continuous curve in FIG. 2 in Rozhin et al., J. Biol. Chem., 252, 7214-7220, 1977. The dashed line represents the relationship between FI and the Ki of pure noncompetitive inhibition derived mathematically in an analogous manner and expressed as [formula] Since [I]=22.2 μM, [formula]

[2] = system: estrogen sulfotransferase; assay: Blocking of estrogen sulfotransferase activity by 3-methoxy-4-nitroestrone (Example 4); type: biochemical; settings: molar ratio of 10:1
[3] = system: 17β-estradiol receptor (rabbit uterus 100,000×g supernatant); assay: Competitive binding: effect on binding of 17β-estradiol (E2) by rabbit uterine tissue; settings: 2000-fold excess; 0.7 nM tritiated 17β-estradiol; 2 h on ice
Description: Competitive binding experiments were carried out utilizing the 100,000×g supernatant from rabbit uterus maintained at 4° C. Unlabeled competitive estrogens were added to the incubation 10 min. before tritiated 17β-estradiol. Incubations were carried out in quadruplicate for 2 h on ice. [2,4,6,7-^3 H]-17-Estradiol was added to 0.5 ml of supernatant (0.69 mg protein) at a concentration of 0.7 nM. Radioactivity in the bound 17β-estradiol was assayed by the dextran-coated charcoal (1:10) procedure.

[4] = pH 8.1, read-out: Fractional Inhibition (Table II)
[5] = inhibitors 2 to 4 and 9 to 12; from kinetic experiments; read-out: Ki (Table II), not among those calculated
[6] = pH 8.1; read-out: Fractional Inhibition (Table II)
[7] = inhibitors 2, 7 and 8; competitive inhibition equation; read-out: Ki (Table I), calculated from fractional inhibition (competitive inhibition)
[8] = pH 8.1; read-out: Fractional Inhibition (Table I)
[9] = pH 8.1, read-out: Fractional Inhibition (Table I)
[10] = inhibitors 3 to 6, 12 and 16; from kinetic experiments; read-out: Ki (Table I), determined experimentally
[11] = inhibitors 1 and 5 to 8; calculated from fractional inhibition; read-out: Ki (Table II), calculated from Equation 4 (competitive inhibition)

## C[C@]12CC[C@@H]3c4ccc(O)cc4CC[C@H]3[C@@H]1C[C@@H](O)[C@@H]2O [1,3,5(10)Estratriene-3,16α,17β-triol]
[1]
  Ki: 8.2 µM
[1]; [4]
  inhibition at 22.2 µM: 66%

## C[C@]12CC[C@@H]3c4ccc(O)cc4CC[C@H]3[C@@H]1C[C@@H](O)C2 [1,3,5(10)Estratriene-3,16α-diol]
[1]; [5]
  Ki: 1.3 µM
[1]; [6]
  inhibition at 22.2 µM: 89%

## C[C@]12CC[C@@H]3c4ccc(O)cc4CC[C@H]3[C@@H]1C[C@H](O)[C@@H]2O [1,3,5(10)Estratriene-3,16β,17β-triol]
[1]
  Ki: 5.5 µM
[1]; [4]
  inhibition at 22.2 µM: 72%

## CC(=O)Oc1ccc2c(c1)CC[C@@H]1[C@@H]2CC[C@]2(C)[C@@H](O)CC[C@@H]12 [1,3,5(10)Estratriene-3,17β-diol-3-acetate]
[1]; [7]
  Ki: 17 µM
[1]; [8]
  inhibition at 22.2 µM: 39%

## C[C@]12CC[C@@H]3c4ccc(OC(=O)c5ccccc5)cc4CC[C@H]3[C@@H]1CC[C@@H]2O [1,3,5(10)Estratriene-3,17β-diol-3-benzoate]
[1]
  Ki: 90 µM
[1]; [9]
  inhibition at 22.2 µM: 11%

## C[C@@]12CCC[C@H]1[C@@H]1CCc3cc(O)ccc3[C@H]1CC2 [1,3,5(10)Estratriene-3-ol]
[1]; [10]
  Ki: 3.5 µM
[1]; [8]
  inhibition at 22.2 µM: 67%

## C[C@]12CC[C@@H]3c4ccccc4CC[C@H]3[C@@H]1CC[C@@H]2O [1,3,5(10)Estratriene-17β-ol]
[1]; [7]
  Ki: 16 µM
[1]; [8]
  inhibition at 22.2 µM: 41%

## C[C@@]12CCC[C@H]1[C@@H]1CCc3ccccc3[C@H]1CC2 [1,3,5(10)Estratriene]
[1]; [8]
  inhibition at 22.2 µM: 0%

## C[C@]12CC[C@@H]3c4cc(Br)c(O)c(Br)c4CC[C@H]3[C@@H]1CC[C@@H]2O [2,4-Dibromo-1,3,5(10)estratriene-3,17β-diol]
[1]; [11]
  Ki: 0.11 µM
[1]; [6]
  inhibition at 22.2 µM: 99%

## C[C@]12CC[C@@H]3c4cc([N+](=O)[O-])c(O)c([N+](=O)[O-])c4CC[C@H]3[C@@H]1CC[C@@H]2O [2,4-Dinitro-1,3,5(10)estratriene-3,17β-diol]
[1]
  Ki: 4.3 µM
[1]; [4]
  inhibition at 22.2 µM: 72%

## C[C@]12CC[C@@H]3c4cc(N)c(O)cc4CC[C@H]3[C@@H]1CC[C@@H]2O [2-Amino-1,3,5(10)estratriene-3,17β-diol]
[1]; [11]
  Ki: 3.5 µM
[1]; [6]
  inhibition at 22.2 µM: 76%

## C[C@]12CC[C@@H]3c4cc([N+](=O)[O-])c(O)cc4CC[C@H]3[C@@H]1CC[C@@H]2O [2-Nitro-1,3,5(10)estratriene-3,17β-diol]
[1]; [5]
  Ki: 2.4 µM
[1]; [6]
  inhibition at 22.2 µM: 80%

## C[C@]12CC[C@@H]3c4ccc(O)cc4C(=O)C[C@H]3[C@@H]1CC[C@@H]2O [3,17β-Dihydroxy-1,3,5(10)-estratriene-6-one]
[1]
  Ki: 5.5 µM
[1]; [4]
  inhibition at 22.2 µM: 69%

## C[C@]12CC[C@@H]3c4ccc(O)cc4CC[C@H]3[C@@H]1CCC2=O [3-Hydroxy-1,3,5(10)estratriene-17-one]
[1]
  Ki: 4.9 µM
[1]; [8]
  inhibition at 22.2 µM: 65%

## COc1ccc2c(c1)CC[C@@H]1[C@@H]2CC[C@]2(C)[C@@H](O)CC[C@@H]12 [3-Methoxy-1,3,5(10)estratriene-17β-ol]
[1]; [10]
  Ki: 4.8 µM
[1]; [8]
  inhibition at 22.2 µM: 61%

## COc1ccc2c(c1[N+](=O)[O-])CC[C@@H]1[C@@H]2CC[C@]2(C)C(=O)CC[C@@H]12 [3-Methoxy-4-NO2-1,3,5(10)-estratriene-17-one]
[1]; [11]
  Ki: 4.3 µM
[1]; [6]
  inhibition at 22.2 µM: 72%
[2]
  blocked activity of estrogen sulfotransferase: > 90%
[3]
  blocking of binding of 17β-estradiol to its receptor: not blocked

## C[C@]12CC[C@H](O)CC1=CC[C@@H]1[C@@H]2CC[C@]2(C)C(=O)CC[C@@H]12 [3β-Hydroxy-5-androstene-17-one]
[1]
  Ki: 170 µM
[1]; [9]
  inhibition at 22.2 µM: 21%

## C[C@]12CC[C@H](O)C[C@H]1CC[C@@H]1[C@@H]2CC[C@]2(C)C(=O)CC[C@@H]12 [3β-Hydroxy-5β-androstane-17-one]
[1]
  Ki: 302 µM
[1]; [9]
  inhibition at 22.2 µM: 13%

## C[C@]12CC[C@@H]3c4ccc(O)c(N)c4CC[C@H]3[C@@H]1CC[C@@H]2O [4-Amino-1,3,5(10)estratriene-3,17β-diol]
[1]; [11]
  Ki: 3.5 µM
[1]; [6]
  inhibition at 22.2 µM: 76%

## C[C@]12CC[C@@H]3c4ccc(O)c([N+](=O)[O-])c4CC[C@H]3[C@@H]1CC[C@@H]2O [4-Nitro-1,3,5(10)estratriene-3,17β-diol]
[1]; [5]
  Ki: 0.15 µM
[1]; [6]
  inhibition at 22.2 µM: 98%

## C[C@]12CC[C@H]3[C@@H](CC=C4C[C@@H](O)CC[C@@]43C)[C@@H]1CC[C@@H]2O [5-Androstene-3β,17β-diol]
[1]
  Ki: 35 µM
[1]; [9]
  inhibition at 22.2 µM: 39%

## C[C@@]12CCC[C@H]1[C@@H]1CC=C3C[C@@H](O)CC[C@]3(C)[C@H]1CC2 [5-Androstene-3β-ol]
[1]; inhibitors 10, 11 and 13 to 15; Equation 5 (noncompetitive); read-out: Ki (Table I), calculated from fractional inhibition (noncompetitive inhibition)
  Ki: 50 µM
[1]; [8]
  inhibition at 22.2 µM: 31%

## C[C@@]12CCC[C@H]1[C@@H]1CC=C3CCCC[C@]3(C)[C@H]1CC2 [5-Androstene]
[1]; [8]
  inhibition at 22.2 µM: 0%
[1]; summary statement
  estrogen sulfotransferase inhibition, in words: inactive

## C[C@]12CC[C@H](O)C[C@@H]1CC[C@@H]1[C@@H]2CC[C@]2(C)[C@@H](O)CC[C@@H]12 [5α-Androstane-3β,17β-diol]
[1]
  Ki: 47 µM
[1]; [9]
  inhibition at 22.2 µM: 32%

## C[C@]12CCC(=O)C[C@@H]1CC[C@@H]1[C@@H]2CC[C@]2(C)[C@@H](O)CC[C@@H]12 [17β-Hydroxy-5α-androstane-3-one]
[1]
  Ki: 38 µM
[1]; [9]
  inhibition at 22.2 µM: 37%

## C[C@]12CCC(=O)C[C@H]1CC[C@@H]1[C@@H]2CC[C@]2(C)[C@@H](O)CC[C@@H]12 [17β-Hydroxy-5β-androstane-3-one]
[1]
  Ki: 74 µM
[1]; [9]
  inhibition at 22.2 µM: 23%
